Measurements: PubChem BioAssay (NCI)
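1) Cells in 96-well plates. 2) Compound, 48 h, 5 concentrations. 3) Linear interpolation between surrounding doses. 4) Unreached endpoint = highest concentration. TGI denotes the concentration required for complete inhibition of growth.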

Key:
Experiment in all cases: NCI anticancer screen, dose series, 48 h
HOP-62 NSCLC = tested on: HOP-62 NSCLC
SK-MEL-2 melanoma = tested on: SK-MEL-2 melanoma
MOLT-4 leukemia = tested on: MOLT-4 leukemia
TK-10 renal = tested on: TK-10 renal
OVCAR-8 ovarian = tested on: OVCAR-8 ovarian
A549 NSCLC = tested on: A549 NSCLC
SNB-75 CNS = tested on: SNB-75 CNS
OVCAR-4 ovarian = tested on: OVCAR-4 ovarian
PC-3 prostate = tested on: PC-3 prostate
A498 renal = tested on: A498 renal

| Compound | TGI (HOP-62 NSCLC) | TGI (SK-MEL-2 melanoma) | TGI (MOLT-4 leukemia) | TGI (TK-10 renal) | TGI (OVCAR-8 ovarian) | TGI (A549 NSCLC) | TGI (SNB-75 CNS) | TGI (OVCAR-4 ovarian) | TGI (PC-3 prostate) | TGI (A498 renal) |
| --- | --- | --- | --- | --- | --- | --- | --- | --- | --- | --- |
| O=C1c2ccccc2-c2nc(-c3cccnc3)cc3c2c1nc1ccccc13 | > 100 µM | > 100 µM | > 100 µM | > 100 µM | > 100 µM | > 100 µM | > 100 µM | > 100 µM | > 100 µM |  |
| O=C(/C=C/c1ccc(O)c(O)c1)OCCc1cccc2ccccc12 |  | 10.2 µM | 12.3 µM | 13.6 µM | 19.9 µM | 19.7 µM | 9.57 µM | 23.9 µM | 16.3 µM | 24.8 µM |
| COc1cc(/C=C/C(C)=O)ccc1OP(=O)(O)O | > 100 µM | > 100 µM | > 100 µM | > 100 µM | > 100 µM | > 100 µM | > 100 µM | > 100 µM | > 100 µM | > 100 µM |
| N#Cc1c(-c2ccccc2)/c(=C\O)c(=O)n2c1nc1ccccc12 |  | > 100 µM | > 100 µM | > 100 µM | > 100 µM | > 100 µM | 91.9 µM | > 100 µM | > 100 µM | > 100 µM |
| CCOP(=O)(Nc1ccc(-c2ccccc2)cc1)OCC | > 100 µM | > 100 µM | > 100 µM | > 100 µM | > 100 µM | > 100 µM | > 100 µM | > 100 µM | > 100 µM | > 100 µM |
| c1ccc(N=C2SC(=NNc3ccccc3)SC2=Nc2ccccc2)cc1 | > 100 µM | > 100 µM | > 100 µM | > 100 µM | > 100 µM | > 100 µM | > 100 µM | > 100 µM | > 100 µM | > 100 µM |
| COc1cccc2cc(C(N)=O)c(=N)oc12 |  | 60.7 µM | > 100 µM |  | > 100 µM | > 100 µM | > 100 µM | > 100 µM | > 100 µM | > 100 µM |
| C1COC(NC(C2CC2)C2CC2)=N1 |  | > 100 µM | > 100 µM | > 100 µM | > 100 µM | > 100 µM | > 100 µM | > 100 µM | > 100 µM | > 100 µM |
| CC(C)OP(=O)(CN(C)/C(F)=N\C(F)(F)F)OC(C)C | > 100 µM | > 100 µM | > 100 µM | > 100 µM | > 100 µM | > 100 µM | > 100 µM |  | > 100 µM | > 100 µM |
| C=C1c2c(cc3c(c2O)c(=O)c2ccccc2n3C)OC1(C)C |  | > 100 µM | > 100 µM | > 100 µM | > 100 µM |  | 42 µM |  |  | > 100 µM |
| Cc1ccc(C(=O)C(C)N)cc1 (stereo not drawn) | > 100 µM | > 100 µM | > 100 µM | > 100 µM | > 100 µM | > 100 µM | > 100 µM | > 100 µM |  | > 100 µM |
